These results are taken from patent publication US6565892B2, “Synergistic fungicidal composition comprising a compound analogous to strobilurin” (Rhone-Poulenc Agrochimie, priority 1995, dated 2003).

This test relates to Plasmopara viticola. Kind of test: In vivo test with respect to Plasmopara viticola (grape downy mildew) on Chardonnay vine cuttings, preventive treatment 72 hours before infection. The settings on record: in Vitis vinifera, spray 72 h before infection, reading 7 days after infection, read-out: dose of A alone which it is necessary to apply for the destruction of 50% of the parasite. The method, then:
A suspension comprising the compounds A and B in a liquid mixture composed of a surface-active agent (oleate of polyoxyethylenated derivative of sorbitan) and water is prepared.
The component B is fosetyl-Al; the A/B ratio is 0.05, 0.07 and 0.1 (B/A=20, 15 and 10).
Vine (Vitis vinifera) cuttings, variety Chardonnay, are grown in small pots. When these seedlings are 2 months old (8- to 10-leaf stage, height of 10 to 15 cm), they are treated by spraying with the above suspension.
After 72 hours, each seedling is infected by spraying with an aqueous suspension of spores of Plasmopara viticola, which suspension is obtained from sporulated leaves infected 7 days previously. These spores are suspended at a concentration of 100,000 units per cm^3 of inoculum. Infection is carried out by spraying the inoculum at the undersurface of the leaves.
The infected seedlings are then incubated for seven days at 20-22° C. at 90-100% relative humidity under natural light.
Reading is carried out 7 days after infection, in comparison with the control seedlings.
The results obtained are reported in the form of points, corresponding to 50% destruction of the parasite, and are plotted on a Tammes isobole diagram which contains, on the abscissa, the doses of A expressed in ppm (mg/l) and, on the ordinate, the doses of B, also in ppm (mg/l). […]

SMILES strings stand for the structures. Converted amounts (≈) assume the structure as drawn. Read-outs that look alike come from different tables or passages of the source.

Consider `CNC(=O)/C(=N/OC)c1ccccc1COc1cc(C)ccc1C` [SSF-129, N-methyl-(E)-methoxyimino[2-(2,5-dimethylphenoxymethyl)phenyl]acetamide], for which the EC50 (A = SSF-129 alone) was determined as 4.6 µg/mL (≈ 14.1 µM). In the case of `CO/C=C(/C(=O)OC)c1ccccc1Oc1cc(Oc2ccccc2C#N)ncn1` [ICIA5504, methyl (E)-2-{2-[6-(2-cyanophenoxy)pyrimidin-4-yloxy]phenyl}-3-methoxyacrylate], the EC50 (A = ICIA5504 alone) came to 1.5 µg/mL (≈ 3.72 µM).
